# Values joined by “and” are separate entries in the source; they are usually repeats but may differ in a detail not shown here. Identical values can stand only once. Records with an inconclusive call do not appear.
# System: MX-1 breast xenograft, nude mice, tumor weight T/C
# Assay: NCI In Vivo Anticancer Drug Screen. Data for tumor model Human Mammary Carcinoma MX-1 Xenograft (intrarenal inoculation) in NU/NU Swiss (nude) mice
# Conditions: endpoint: mean tumor weight change, higher = larger tumour
# How it was run: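 Read-out: treated (T) over vehicle control (C) ratio of survival or tumor size. Dosing in animals carrying the transplanted tumor.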
# [1] = dose: 300.0 mg/kg/injection, schedule: Q04DX003 (sc), vehicle: saline with Tween-80
# [2] = dose: 600.0 mg/kg/injection, schedule: Q04DX003 (sc), vehicle: saline with Tween-80
# [3] = dose: 1200.0 mg/kg/injection, schedule: Q04DX003 (sc), vehicle: saline with Tween-80
# [4] = dose: 2400.0 mg/kg/injection, schedule: Q04DX003 (sc), vehicle: saline with Tween-80
# [5] = dose: 400.0 mg/kg/injection, schedule: Q04DX003 (sc), vehicle: suspension in saline
# [6] = dose: 600.0 mg/kg/injection, schedule: Q04DX003 (sc), vehicle: suspension in saline
# [7] = dose: 50.0 mg/kg/injection, schedule: Q01DX010 (sc), vehicle: suspension in saline
# [8] = dose: 200.0 mg/kg/injection, schedule: Q01DX010 (sc), vehicle: suspension in saline
# [9] = dose: 600.0 mg/kg/injection, schedule: Q04DX003 (sc), vehicle: Klucel (hydroxypropylcellulose) (HPC)
# [10] = dose: 300.0 mg/kg/injection, schedule: Q04DX003 (sc), vehicle: Klucel (hydroxypropylcellulose) (HPC)
# [11] = dose: 1200.0 mg/kg/injection, schedule: Q04DX003 (sc), vehicle: Klucel (hydroxypropylcellulose) (HPC)
# [12] = dose: 100.0 mg/kg/injection, schedule: Q01DX010 (sc), vehicle: saline with Tween-80
# [13] = dose: 200.0 mg/kg/injection, schedule: Q01DX010 (sc), vehicle: saline with Tween-80
# [14] = dose: 400.0 mg/kg/injection, schedule: Q01DX010 (sc), vehicle: saline with Tween-80
smiles,measurement,setting,value
COc1cc(Cl)ccc1C,T/C,[1],108 % of control
same,T/C,[2],88 % of control
same,T/C,[3],95 % of control
same,T/C,[4],76 % of control
CCOC(=O)C1(c2ccccc2)C(=O)Oc2ccccc21 (stereo unspecified),T/C,[1],99 % of control
same,T/C,[2],103 % of control
same,T/C,[3],101 % of control
same,T/C,[4],99 % of control
NC(=O)SCC(N)C(=O)O (stereo unspecified),T/C,"dose: 225.0 mg/kg/injection, schedule: Q04DX003 (sc), vehicle: suspension in saline",73 % of control
same,T/C,[5],62 % of control
same,T/C,"dose: 450.0 mg/kg/injection, schedule: Q04DX003 (sc), vehicle: suspension in saline",49 % of control
same,T/C,[6],57 % of control
Nc1cc2[nH]cnc2c(=O)[nH]1,T/C,"dose: 25.0 mg/kg/injection, schedule: Q01DX010 (sc), vehicle: saline",46 % of control
same,T/C,"dose: 50.0 mg/kg/injection, schedule: Q01DX010 (sc), vehicle: saline",-36 % of control
same,T/C,[7],9 % of control
same,T/C,"dose: 50.0 mg/kg/injection, schedule: Q04DX003 (sc), vehicle: suspension in saline",95 % of control
same,T/C,"dose: 100.0 mg/kg/injection, schedule: Q01DX010 (sc), vehicle: saline",-25 % of control and -11 % of control
same,T/C,"dose: 100.0 mg/kg/injection, schedule: Q01DX010 (sc), vehicle: suspension in saline",-28 % of control
same,T/C,"dose: 100.0 mg/kg/injection, schedule: Q04DX003 (sc), vehicle: suspension in saline",83 % of control and 100 % of control
same,T/C,"dose: 200.0 mg/kg/injection, schedule: Q01DX010 (sc), vehicle: saline",-31 % of control
same,T/C,[8],-89 % of control
same,T/C,"dose: 200.0 mg/kg/injection, schedule: Q04DX003 (sc), vehicle: suspension in saline",8 % of control and 31 % of control
same,T/C,[5],12 % of control and 18 % of control
same,T/C,"dose: 800.0 mg/kg/injection, schedule: Q04DX003 (sc), vehicle: suspension in saline",8 % of control
O/N=C/c1ccccc1O.O/N=C/c1ccccc1O.[Cu],T/C,[1],81 % of control
same,T/C,[2],72 % of control
same,T/C,[3],60 % of control
same,T/C,[4],103 % of control
Nc1nc2n[nH]nc2c(=O)[nH]1,T/C,"dose: 75.0 mg/kg/injection, schedule: Q04DX003 (ip), vehicle: suspension in saline",22 % of control and 46 % of control
same,T/C,"dose: 75.0 mg/kg/injection, schedule: Q04DX003 (sc), vehicle: suspension in saline",35 % of control
same,T/C,"dose: 150.0 mg/kg/injection, schedule: Q04DX003 (ip), vehicle: suspension in saline",6 % of control
same,T/C,"dose: 150.0 mg/kg/injection, schedule: Q04DX003 (sc), vehicle: suspension in saline",18 % of control
same,T/C,"dose: 300.0 mg/kg/injection, schedule: Q04DX003 (ip), vehicle: suspension in saline",1 % of control
same,T/C,[6],-77 % of control
CCCCCC(O)C1C(=O)OC(C)C(O)/C=C/C=C/C=C/C=C\C=C(\C)C(O)CC(O)CC(O)CC(O)CC(O)CC(O)CC1O (stereo unspecified),T/C,"dose: 300.0 mg/kg/injection, schedule: Q04DX003 (sc), vehicle: distilled water + alcohol",84 % of control
same,T/C,"dose: 600.0 mg/kg/injection, schedule: Q04DX003 (sc), vehicle: distilled water + alcohol",107 % of control
same,T/C,"dose: 1200.0 mg/kg/injection, schedule: Q04DX003 (sc), vehicle: distilled water + alcohol",69 % of control
O=S(=O)(SC(S(=O)(=O)c1ccccc1)S(=O)(=O)c1ccccc1)c1ccccc1,T/C,"dose: 100.0 mg/kg/injection, schedule: Q04DX003 (sc), vehicle: Klucel (hydroxypropylcellulose) (HPC)",68 % of control
same,T/C,"dose: 200.0 mg/kg/injection, schedule: Q04DX003 (sc), vehicle: Klucel (hydroxypropylcellulose) (HPC)",42 % of control
same,T/C,"dose: 400.0 mg/kg/injection, schedule: Q04DX003 (sc), vehicle: Klucel (hydroxypropylcellulose) (HPC)",84 % of control
same,T/C,[9],100 % of control
same,T/C,"dose: 800.0 mg/kg/injection, schedule: Q04DX003 (sc), vehicle: Klucel (hydroxypropylcellulose) (HPC)",87 % of control and 98 % of control
same,T/C,"dose: 1600.0 mg/kg/injection, schedule: Q04DX003 (sc), vehicle: Klucel (hydroxypropylcellulose) (HPC)",112 % of control
C=CCNc1nc2c(s1)CCc1cc(OC)c(OC)cc1-2,T/C,[1],92 % of control
same,T/C,[2],96 % of control
same,T/C,[3],80 % of control
Cc1ccc(C(=O)NC2C(=O)NC(C(C)C)C(=O)N3CCCC3C(=O)N(C)CC(=O)N(C)C(C(C)C)C(=O)OC2C)c2c1Oc1c(c(C(=O)NC3C(=O)NC(C(C)C)C(=O)N4CCCC4C(=O)N(C)CC(=O)N(C)C(C(C)C)C(=O)OC3C)c3nc(-c4ccccc4)c(=O)oc3c1C)N2 (stereo unspecified),T/C,"dose: 0.25 mg/kg/injection, schedule: Q04DX003 (ip), vehicle: water",77 % of control
same,T/C,"dose: 0.5 mg/kg/injection, schedule: Q04DX003 (ip), vehicle: water",75 % of control
same,T/C,"dose: 1.0 mg/kg/injection, schedule: Q04DX003 (ip), vehicle: water",49 % of control
same,T/C,"dose: 2.0 mg/kg/injection, schedule: Q04DX003 (ip), vehicle: water",51 % of control
same,T/C,"dose: 4.0 mg/kg/injection, schedule: Q04DX003 (ip), vehicle: water",12 % of control
Cc1cc(N2C(=O)CCSC2=S)ccc1Cl,T/C,"dose: 150.0 mg/kg/injection, schedule: Q04DX003 (sc), vehicle: Klucel (hydroxypropylcellulose) (HPC)",169 % of control
same,T/C,[10],90 % of control
same,T/C,[9],63 % of control
same,T/C,[11],96 % of control
N=C(N)SCc1cccc2c(=O)cc(-c3ccccc3)oc12,T/C,"dose: 300.0 mg/kg/injection, schedule: Q04DX003 (sc), vehicle: suspension in saline",110 % of control
O=C1[C@H]2CCC[C@H]2[C@H]2CCC[C@@H]12,T/C,[1],112 % of control
same,T/C,[2],123 % of control
same,T/C,[3],95 % of control
same,T/C,[4],92 % of control
Cc1ccc(C(=O)[O][Hg][CH2]C2COC([CH2][Hg][O]C(=O)c3ccc(C)cc3)CO2)cc1 (stereo unspecified),T/C,[10],109 % of control
same,T/C,[9],106 % of control
same,T/C,[11],72 % of control
same,T/C,"dose: 2400.0 mg/kg/injection, schedule: Q04DX003 (sc), vehicle: Klucel (hydroxypropylcellulose) (HPC)",102 % of control
Cc1c2ccncc2c(C)c2c1[nH]c1ccccc12,T/C,"dose: 6.25 mg/kg/injection, schedule: Q01DX010 (sc), vehicle: saline",63 % of control
same,T/C,[7],81 % of control
same,T/C,[8],85 % of control
CC(=O)O[C@H]1C(=O)[C@@]2(C)[C@H]([C@H](OC(=O)c3ccccc3)[C@]3(O)C[C@H](OC(=O)[C@H](O)[C@@H](NC(=O)c4ccccc4)c4ccccc4)C(C)=C1C3(C)C)[C@]1(OC(C)=O)CO[C@@H]1C[C@@H]2O,T/C,"dose: 2.5 mg/kg/injection, schedule: Q01DX010 (sc), vehicle: Klucel (hydroxypropylcellulose) (HPC)",83 % of control
same,T/C,"dose: 5.0 mg/kg/injection, schedule: Q01DX010 (sc), vehicle: Klucel (hydroxypropylcellulose) (HPC)",77 % of control
same,T/C,"dose: 10.0 mg/kg/injection, schedule: Q01DX010 (sc), vehicle: Klucel (hydroxypropylcellulose) (HPC)",46 % of control
same,T/C,"dose: 20.0 mg/kg/injection, schedule: Q01DX010 (sc), vehicle: Klucel (hydroxypropylcellulose) (HPC)",73 % of control
same,T/C,"dose: 40.0 mg/kg/injection, schedule: Q01DX010 (sc), vehicle: Klucel (hydroxypropylcellulose) (HPC)",48 % of control
same,T/C,"dose: 80.0 mg/kg/injection, schedule: Q01DX010 (sc), vehicle: Klucel (hydroxypropylcellulose) (HPC)",36 % of control
same,T/C,"dose: 400.0 mg/kg/injection, schedule: Q01DX010 (sc), vehicle: Klucel (hydroxypropylcellulose) (HPC)",6 % of control
O=C(O)CCCCCCCC(=O)O,T/C,"dose: 300.0 mg/kg/injection, schedule: Q04DX003 (sc), vehicle: distilled water + Tween-80",151 % of control
same,T/C,"dose: 600.0 mg/kg/injection, schedule: Q04DX003 (sc), vehicle: distilled water + Tween-80",150 % of control
same,T/C,"dose: 1200.0 mg/kg/injection, schedule: Q04DX003 (sc), vehicle: distilled water + Tween-80",80 % of control
Clc1ccc2nnnn2n1,T/C,"dose: 100.0 mg/kg/injection, schedule: Q04DX003 (sc), vehicle: saline with Tween-80",173 % of control
same,T/C,"dose: 200.0 mg/kg/injection, schedule: Q04DX003 (sc), vehicle: saline with Tween-80",95 % of control
O=c1[nH]c(=O)n(C2CC(O)C(CO)O2)cc1I (stereo unspecified),T/C,[12],55 % of control
same,T/C,[13],38 % of control
same,T/C,[14],48 % of control
CCOC(=O)c1ccc(NC(=O)Nc2nccs2)cc1,T/C,"dose: 25.0 mg/kg/injection, schedule: Q01DX010 (sc), vehicle: saline with Tween-80",100 % of control
same,T/C,[12],97 % of control and 108 % of control
same,T/C,[13],63 % of control
same,T/C,[14],186 % of control

# — PubChem BioAssay AID296 (DTP/NCI, 2004)
